Assay results published in patent US9365574B2, “Soluble guanylate cyclase activators” (Merck Sharp & Dohme Corp., priority 2010, dated 2016).

System: Spontaneously hypertensive rats (SHR)
Assay: Acute Efficacy in Spontaneously Hypertensive Rats (SHR), telemetry blood pressure
Assay type: in vivo, rat
Conditions: dose 0.3 mpk
Procedure, shortened: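 Male SHR with aortic telemetry catheters, 14-day recovery, conscious and freely moving; single oral gavage in 10% transcutol/20% Cremophor/70% water. BP sampled 30 s every 10 min, hourly averages minus prior-day vehicle baseline; value is maximum peak SBP decrease at stated mg/kg PO dose.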

| Structure (SMILES) | Maximum SBP reduction |
| --- | --- |
| CC1(c2nncs2)C(=O)Nc2nc(-c3nn(CCC(F)(F)C(F)(F)F)c4ncccc34)nc(N)c21 (stereo not shown) [Example 168, 4-Amino-5-Methyl-2-[1-(3,3,4,4,4-Pentafluorobutyl)-1H-Pyrazolo[3,4-B]Pyridin-3-yl]-5-(1,3,4-Thiadiazol-2-yl)-5,7-Dihydro-6H-Pyrrolo[2,3-D]Pyrimidin-6-One] | 19 ± 9 mmHg |
| Cc1ccc2c(-c3nc(N)c4c(n3)NC(=O)C4(C)C(=O)NC3CC3)nn(CCC(F)(F)F)c2n1 (stereo not shown) [Example 184, 4-Amino-N-Cyclopropyll-5-Methyl-2-[6-Methyl-1-(3,3,3-Trifluoropropyl)-1H-Pyrazolo[3,4-B]Pyridin-3-yl]-6-Oxo-6,7-Dihydro-5H-Pyrrolo[2,3-D]Pyrimidine-5-Carboxamide] | 19 ± 5 mmHg |

Same assay, conditions: dose 1.0 mpk

| Structure (SMILES) | Maximum SBP reduction |
| --- | --- |
| CC1(C(=O)Nc2cccnc2)C(=O)Nc2nc(-c3nn(CCC(F)(F)F)c4ncccc34)nc(N)c21 (stereo not shown) [Example 182, 4-Amino-5-Methyl-6-Oxo-N-(Pyridin-3-yl)-2-[1-(3,3,3-Trifluoropropyl)-1H-Pyrazolo[3,4-B]Pyridin-3-yl]-6,7-Dihydro-5H-Pyrrolo[2,3-D]Pyrimidine-5-Carboxamide] | 46 ± 11 mmHg |

Same assay, conditions: single oral dose 0.3 mpk P.O.

| Structure (SMILES) | Maximum peak decrease of systolic blood pressure (SBP) in SHR, Category |
| --- | --- |
| CNc1nc(-c2nn(CCC(F)(F)C(F)(F)F)c3ncccc23)nc2c1C(C)(C(=O)NC1CC1)C(=O)N2 (stereo not shown) [Example 187, N-Cyclopropyl-5-Methyl-4-(Methylamino)-6-Oxo-2-[1-(3,3,4,4,4-Pentafluorobutyl)-1H-Pyrazolo[3,4-B]Pyridin-3-yl]-6,7-Dihydro-5H-Pyrrolo[2,3-D]Pyrimidine-5-Carboxamide] | B (Category B=SBP in SHRs 25-40 mmHg) |
| CC1(c2nncs2)C(=O)Nc2nc(-c3nn(CCC(F)(F)C(F)(F)F)c4ncccc34)nc(N)c21 (stereo not shown) [Example 168, 4-Amino-5-Methyl-2-[1-(3,3,4,4,4-Pentafluorobutyl)-1H-Pyrazolo[3,4-B]Pyridin-3-yl]-5-(1,3,4-Thiadiazol-2-yl)-5,7-Dihydro-6H-Pyrrolo[2,3-D]Pyrimidin-6-One] | A (Category A=SBP in SHRs<25 mmHg) |
| Cc1ccc2c(-c3nc(N)c4c(n3)NC(=O)C4(C)C(=O)NC3CCOCC3)nn(CCC(F)(F)C(F)(F)F)c2n1 (stereo not shown) [Example 239, 4-amino-5-methyl-2-[6-methyl-1-(3,3,4,4,4-pentafluorobutyl)-1H-pyrazolo[3,4-b]pyridin-3-yl]-6-oxo-N-(tetrahydro-2H-pyran-4-yl)-6,7-dihydro-5H-pyrrolo[2,3-d]pyrimidine-5-carboxamide] | A (Category A=SBP in SHRs<25 mmHg) |
| Cc1ccc2c(-c3nc(N)c4c(n3)NC(=O)C4(C)C(=O)NC3CC3)nn(CCC(F)(F)F)c2n1 (stereo not shown) [Example 184, 4-Amino-N-Cyclopropyll-5-Methyl-2-[6-Methyl-1-(3,3,3-Trifluoropropyl)-1H-Pyrazolo[3,4-B]Pyridin-3-yl]-6-Oxo-6,7-Dihydro-5H-Pyrrolo[2,3-D]Pyrimidine-5-Carboxamide] | A (Category A=SBP in SHRs<25 mmHg) |
| CC1(c2ccccn2)C(=O)Nc2nc(-c3nn(CCC(F)(F)F)c4ncccc34)nc(N)c21 (stereo not shown) [Example 232, 4-amino-5-methyl-5-pyridin-2-yl-2-[1-(3,3,3-trifluoropropyl)-1H-pyrazolo[3,4-b]pyridin-3-yl]-5,7-dihydro-6H-pyrrolo[2,3-d]pyrimidin-6-one] | B (Category B=SBP in SHRs 25-40 mmHg) |
| CC1(C(N)=O)C(=O)Nc2nc(-c3nc(CCC(F)(F)C(F)(F)F)c4ccccn34)nc(N)c21 (stereo not shown) [Example 270, 4-amino-5-methyl-6-oxo-2-[1-(3,3,4,4,4-pentafluorobutyl)imidazo[1,5-a]pyridin-3-yl]-6,7-dihydro-5H-pyrrolo[2,3-d]pyrimidine-5-carboxamide] | A (Category A=SBP in SHRs<25 mmHg) |
| CC1(C(=O)NC2CC2)C(=O)Nc2nc(-c3nn(CCC(F)F)c4ncccc34)nc(N)c21 (stereo not shown) [Example 238, 4-amino-N-cyclopropyl-2-[1-(3,3-difluoropropyl)-1H-pyrazolo[3,4-b]pyridin-3-yl]-5-methyl-6-oxo-6,7-dihydro-5H-pyrrolo[2,3-d]pyrimidine-5-carboxamide] | B (Category B=SBP in SHRs 25-40 mmHg) |
| Nc1nc(-c2nn(CCCC(F)(F)F)c3ncccc23)nc2c1C(C(=O)NC1CC1)(C1CC1)C(=O)N2 (stereo not shown) [Example 246, 4-amino-N,5-dicyclopropyl-6-oxo-2-[1-(4,4,4-trifluorobutyl)-1H-pyrazolo[3,4-b]pyridin-3-yl]-6,7-dihydro-5H-pyrrolo[2,3-d]pyrimidine-5-carboxamide] | C (Category C=SBP in SHRs>40 mmHg) |
| CNc1nc(-c2nn(CCC(F)(F)C(F)(F)F)c3ncccc23)nc2c1C(C(=O)NC1CC1)(C1CC1)C(=O)N2 (stereo not shown) [Example 262, N,5-dicyclopropyl-4-(methylamino)-6-oxo-2-[1-(3,3,4,4,4-pentafluorobutyl)-1H-pyrazolo[3,4-b]pyridin-3-yl]-6,7-dihydro-5H-pyrrolo[2,3-d]pyrimidine-5-carboxamide] | A (Category A=SBP in SHRs<25 mmHg) |
| CC1(C(=O)NC2CCC2)C(=O)Nc2nc(-c3nn(CCC(F)(F)C(F)(F)F)c4cc(Cl)ccc34)nc(N)c21 (stereo not shown) [Example 196, 4-amino-2-[6-chloro-1-(3,3,4,4,4-pentafluorobutyl)-1H-indazol-3-yl]-N-cyclobutyl-5-methyl-6-oxo-6,7-difluoro-5H-pyrrolo[2,3-d]pyrimidine-5-carboxamide] | B (Category B=SBP in SHRs 25-40 mmHg) |
| CC1(C(=O)NC2CCOC2)C(=O)Nc2nc(-c3nn(CCC(F)(F)C(F)(F)F)c4ncccc34)nc(N)c21 (stereo not shown) [Example 235, 4-amino-5-methyl-6-oxo-2-[1-(3,3,4,4,4-pentafluorobutyl)-1H-pyrazolo[3,4-b]pyridin-3-yl]-N-(tetrahydrofuran-3-yl)-6,7-dihydro-5H-pyrrolo[2,3-d]pyrimidine-5-carboxamide] | B (Category B=SBP in SHRs 25-40 mmHg) |
| CC1(C(=O)NC2CC2)C(=O)Nc2nc(-c3nc(CCC(F)(F)F)n4ncccc34)nc(N)c21 (stereo not shown) [Example 256, 4-amino-H-cyclopropyl-5-methyl-6-oxo-2-[7-(3,3,3-trifluoropropyl)imidazo[1,5-b]pyridazin-5-yl]-6,7-dihydro-5H-pyrrolo[2,3-d]pyrimidine-5-carboxamide] | B (Category B=SBP in SHRs 25-40 mmHg) |
| CC1(N)C(=O)Nc2nc(-c3nn(CCC(F)(F)C(F)(F)F)c4cc(Cl)ccc34)nc(N)c21 (stereo not shown) [Example 201, 4,5-diamino-2-[6-chloro-1-(3,3,4,4,4-pentafluorobutyl)-1H-indazol-3-yl]-5-methyl-5,7-dihydro-6H-pyrrolo[2,3-d]pyrimidin-6-one] | A (Category A=SBP in SHRs<25 mmHg) |
| CC1(c2nnco2)C(=O)Nc2nc(-c3nn(CCC(F)(F)C(F)(F)F)c4ncccc34)nc(N)c21 (stereo not shown) [Example 204, 4-amino-5-methyl-5-(1,3,4-oxadiazol-2-yl)-2-[1-(3,3,4,4,4-pentafluorobutyl)-1H-pyrazolo[3,4-b]pyridin-3-yl]-5,7-dihydro-6H-pyrrolo[2,3-d]pyrimidin-6-one] | B (Category B=SBP in SHRs 25-40 mmHg) |

Same assay, conditions: single oral dose 1 mpk P.O.

| Structure (SMILES) | Maximum peak decrease of systolic blood pressure (SBP) in SHR, Category |
| --- | --- |
| CN(C)C(=O)C1(C)C(=O)Nc2nc(-n3nc(CCC(F)(F)C(F)(F)F)c4cc(Cl)ccc43)nc(N)c21 (stereo not shown) [Example 265, 4-amino-2-[5-chloro-3-(3,3,4,4,4-pentafluorobutyl)-1H-indazol-1-yl]-N,N,5-trimethyl-6-oxo-6,7-dihydro-5H-pyrrolo[2,3-d]pyrimidine-5-carboxamide] | C (Category C=SBP in SHRs>40 mmHg) |
| CC1(C(=O)Nc2cccnc2)C(=O)Nc2nc(-c3nn(CCC(F)(F)F)c4ncccc34)nc(N)c21 (stereo not shown) [Example 182, 4-Amino-5-Methyl-6-Oxo-N-(Pyridin-3-yl)-2-[1-(3,3,3-Trifluoropropyl)-1H-Pyrazolo[3,4-B]Pyridin-3-yl]-6,7-Dihydro-5H-Pyrrolo[2,3-D]Pyrimidine-5-Carboxamide] | B (Category B=SBP in SHRs 25-40 mmHg) |
